# Laboratory results as given in patent EP2353599A1, “8-hydroxyquinolines as inhibitors of cathepsin B” (University of Ljubljana, priority 2010, dated 2011).
# Molecular target: Cathepsin B (Homo sapiens, UniProt P07858)
# Assay: Reversibility of cathepsin B inhibition by enzyme kinetics (100-fold dilution of enzyme-inhibitor complex)
# Format: biochemical
# Settings: for enzyme inhibition after dilution of the complex: inhibitor at 10-fold IC50, 100-fold dilution
# Description: Reversibility of cathepsin B inhibition with 5-nitro-8-hydroxyquinoline was determined with three independent experiments. First, we used enzyme kinetics. Cathepsin B at 100-fold its final assay concentration (10 nM) and 5-nitro-8-hydroxyquinoline at 10-fold its IC50 were incubated for 5, 15 and 30 min at room temperature at 2 µl. The enzyme-inhibitor complex was then diluted 100-fold with 5 µM Z-RR-AMC to a final volume of 200 µl, initiating the reaction. Before the dilution of the enzyme-inhibitor complex the enzyme's activity is inhibited by 90 %. In the case of a reversible inhibitor after dilution this percentage is reduced to 9 %. In the case of an irreversible inhibitor the percentage stays unchanged (90 %).
structure (smiles),measurement,setting,value
"O=[N+]([O-])c1ccc(O)c2ncccc12 [Compound 1, 5-nitro-8-hydroxyquinoline]",enzyme inhibition after dilution of the complex,5 min incubation,21.7 ± 2.2%
same,enzyme inhibition after dilution of the complex,15 min incubation,25.2 ± 3.5%
same,enzyme inhibition after dilution of the complex,30 min incubation,27.6 ± 3.2%
same,calculated value of inhibition,expected inhibition after dilution considering the Hill coefficient,15%
